Reference: ChEMBL document CHEMBL3872210, “Synthesis and antiproliferative mechanism of action of pyrrolo[3',2':6,7] cyclohepta[1,2-d]pyrimidin-2-amines as singlet oxygen photosensitizers” (Eur J Med Chem, 2016)

What was measured:
[1] = Selectivity index, ratio of CC50 for cytotoxicity against human HeLa cells to EC50 for photocytotoxicity against human HeLa cells; assay type: toxicity, cell-based; conditions: read-out: Ratio CC50/EC50
[2] = Photocytotoxicity against human HeLa cells assessed as reduction in cell survival irradiated with 1.5 J/cm2 UV-light for 5 mins measured after 48 hrs by MTT assay; assay type: functional, cell-based; conditions: light or radiation study
[3] = Dark toxicity against human HeLa cells assessed as reduction in cell survival measured after 30 mins by MTT assay; assay type: cell-based
[4] = Dark toxicity against human HT-29 cells assessed as reduction in cell survival measured after 30 mins by MTT assay; assay type: cell-based
[5] = Selectivity index, ratio CC50 for cytotoxicity against human HT-29 cells to EC50 for photocytotoxicity against human HT-29 cells; assay type: toxicity, cell-based; conditions: read-out: Ratio CC50/EC50
[6] = Selectivity index, ratio CC50 for cytotoxicity against human MCF7 cells to EC50 for photocytotoxicity against human MCF7 cells; assay type: toxicity, cell-based; conditions: read-out: Ratio CC50/EC50
[7] = Photocytotoxicity against human HT-29 cells assessed as reduction in cell survival irradiated with 1.5 J/cm2 UV-light for 5 mins measured after 48 hrs by MTT assay; assay type: functional, cell-based; conditions: HT-29, light or radiation study
[8] = Photocytotoxicity against human MCF7 cells assessed as reduction in cell survival irradiated with 1.5 J/cm2 UV-light for 5 mins measured after 48 hrs by MTT assay; assay type: functional, cell-based; conditions: MCF7, light or radiation study
[9] = Dark toxicity against human MCF7 cells assessed as reduction in cell survival measured after 30 mins by MTT assay; assay type: cell-based

Structure (SMILES)	selectivity ratio [1]	EC50 [2] [nM]	CC50 at 0.5 h [3] [µM]	CC50 at 0.5 h [4] [µM]	selectivity ratio [5]	selectivity ratio [6]	EC50 [7] [nM]	EC50 [8] [nM]	CC50 at 0.5 h [9] [µM]
NC(=O)c1cc2c(n1Cc1ccccc1)-c1nc(Nc3ccccc3)ncc1CCC2	> 397	250	> 100	> 100	> 281	64	360	1040	66.5
CCOC(=O)c1cc2c(n1Cc1ccc(OC)cc1)-c1nc(NC3CCCCC3)ncc1CCC2	> 1360	70	> 100	> 100	> 735	> 952	140	110	> 100
COc1ccc(Cn2c(C(N)=O)cc3c2-c2nc(Nc4ccccc4)ncc2CCC3)cc1	> 610	160	> 100	> 100	> 360	> 358	280	280	> 100
CCOC(=O)c1cc2c(n1Cc1ccccc1)-c1nc(N)ncc1CCC2	> 455	220	> 100	79.2	284	93	280	790	73.6
Cn1c(C(N)=O)cc2c1-c1nc(Nc3ccccc3)ncc1CCC2	> 90	1120	> 100	> 100	> 54	> 20	1850	4960	> 100
CCOC(=O)c1cc2c(n1C)-c1nc(N)ncc1CCC2	> 139	720	> 100	> 100	> 58	> 65	1720	1540	> 100
CCOC(=O)c1cc2c(n1C)-c1nc(Nc3ccccc3)ncc1CCC2	> 1040	100	> 100	> 100	> 348	> 709	290	140	> 100
COc1ccc(Cn2c(C(N)=O)cc3c2-c2nc(N)ncc2CCC3)cc1	> 88	1140	> 100	> 100	> 50	> 31	2000	3260	> 100
CCOC(=O)c1cc2c(n1Cc1ccc(OC)cc1)-c1nc(N)ncc1CCC2	> 312	320	> 100	> 100	> 348	> 150	290	670	> 100
CCOC(=O)c1cc2c(n1Cc1ccccc1)-c1nc(Nc3ccccc3)ncc1CCC2	> 355	280	> 100	> 100	> 143	> 412	700	240	> 100
COc1ccc(Cn2c(C(N)=O)cc3c2-c2nc(NC4CCCCC4)ncc2CCC3)cc1	> 813	120	> 100	> 100	> 243	> 549	410	180	> 100
NC(=O)c1cc2c(n1Cc1ccccc1)-c1nc(N)ncc1CCC2	> 48	2090	> 100	> 100	> 46	> 27	2170	3690	> 100
